Here are results for 1 compound from PMC3851574 (Journal of structural biology, 2013).

The test concerns the target T1, GCN4-Kar3Cik1 (Kar3Cik1) (Saccharomyces cerevisiae, UniProt P17119).
T1 sequence (P17119 353-729): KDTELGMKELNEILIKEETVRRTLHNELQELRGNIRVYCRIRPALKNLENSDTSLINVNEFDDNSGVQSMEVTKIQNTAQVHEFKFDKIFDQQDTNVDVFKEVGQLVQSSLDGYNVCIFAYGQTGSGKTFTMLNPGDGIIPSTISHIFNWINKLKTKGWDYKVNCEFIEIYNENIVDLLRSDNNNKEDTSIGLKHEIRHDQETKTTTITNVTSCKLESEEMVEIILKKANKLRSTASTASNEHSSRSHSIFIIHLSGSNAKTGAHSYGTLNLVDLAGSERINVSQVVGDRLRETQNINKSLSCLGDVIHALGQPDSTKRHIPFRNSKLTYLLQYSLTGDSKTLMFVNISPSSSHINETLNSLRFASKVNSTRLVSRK
T1 sequence (Q01649 344-594 partner): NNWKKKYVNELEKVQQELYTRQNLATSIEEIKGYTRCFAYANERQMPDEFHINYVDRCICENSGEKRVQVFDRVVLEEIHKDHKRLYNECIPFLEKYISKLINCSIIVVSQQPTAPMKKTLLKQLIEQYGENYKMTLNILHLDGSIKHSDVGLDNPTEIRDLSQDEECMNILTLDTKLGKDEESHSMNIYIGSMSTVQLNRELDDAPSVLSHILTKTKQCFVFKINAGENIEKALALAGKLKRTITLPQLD
Description: cryo-EM and unidirectional metal shadowing of microtubule decoration. It counts as binding. To be noted: 1 mM ADP; bovine brain microtubules; ATPase buffer pH 7.2.

Consider `Nc1ncnc2c1ncn2[C@@H]1O[C@H](COP(=O)(O)OP(=O)(O)O)[C@@H](O)[C@H]1O` [ADP], for which the “cryo-EM and unidirectional metal shadowing of microtubule decoration” value is on record as “Excess ADP significantly lowered the microtubule-binding affinity of Kar3Cik1 in our experiments”.
